Tested on: harmful plant species
Assay: Specific trial examples: binary compositions applied by the post-emergence method, synergistic effect according to Colby (Tables 3.1-3.2)
Assay type: in vivo
Outline: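 Mono- and dicot weeds grown from seed or rhizome in sandy loam in greenhouse, sprayed post-emergence at three-leaf stage (three weeks after sowing) with formulated binary mixtures at various doses in 300–800 l/ha water. Efficacy rated at stated days after application; synergy judged versus summed single effects and Colby expected values.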

CONC(=O)C1=C[C@@H](NC(=O)[C@@]2(C)CC(c3cc(F)cc(F)c3)=NO2)CO1 [Compound A5, (5R)-3-(3,5-difluorophenyl)-N-[(3R)-5-(methoxycarbamoyl)-2,3-dihydrofuran-3-yl]-5-methyl-4H-isoxazole-5-carboxamide]
Herbicidal action 14 DAT against Lolium rigidum (resistant biotype) (1 g a.i./ha): 10%
Herbicidal action 14 DAT against Matricaria inodora (1 g a.i./ha): 30%
Herbicidal action 14 DAT against Viola tricolor (1 g a.i./ha): 30%
Herbicidal action 28 DAT against Centaurea cyanus (1 g a.i./ha): 10%
Herbicidal action 28 DAT against Galium aparine (1 g a.i./ha): 30%
Herbicidal action 28 DAT against Lamium purpureum L. (1 g a.i./ha): 40%
Herbicidal action 28 DAT against Matricaria inodora (1 g a.i./ha): 0%
Herbicidal action 28 DAT against Viola tricolor (1 g a.i./ha): 0%
Herbicidal action 14 DAT against Lolium rigidum (resistant biotype) (4 g a.i./ha): 20%
Herbicidal action 14 DAT against Matricaria inodora (4 g a.i./ha): 50%
Herbicidal action 14 DAT against Viola tricolor (4 g a.i./ha): 20%
Herbicidal action 28 DAT against Centaurea cyanus (4 g a.i./ha): 20%
Herbicidal action 28 DAT against Matricaria inodora (4 g a.i./ha): 10%
Herbicidal action 28 DAT against Phalaris minor (4 g a.i./ha): 30%
Herbicidal action 28 DAT against Viola tricolor (4 g a.i./ha): 0%
Herbicidal action 14 DAT against Alopecurus myosuroides (16 g a.i./ha): 70%
Herbicidal action 14 DAT against Lolium rigidum (16 g a.i./ha): 60%
Herbicidal action 14 DAT against Lolium rigidum (resistant biotype) (16 g a.i./ha): 30%
Herbicidal action 14 DAT against Matricaria inodora (16 g a.i./ha): 50%
Herbicidal action 14 DAT against Poa annua L. (16 g a.i./ha): 30%
Herbicidal action 28 DAT against Alopecurus myosuroides (16 g a.i./ha): 40%
Herbicidal action 28 DAT against Centaurea cyanus (16 g a.i./ha): 50%
Herbicidal action 28 DAT against Lamium purpureum L. (16 g a.i./ha): 60%
Herbicidal action 28 DAT against Matricaria inodora (16 g a.i./ha): 20%
Herbicidal action 28 DAT against Phalaris minor (16 g a.i./ha): 40%
Herbicidal action 28 DAT against Viola tricolor (16 g a.i./ha): 10%
Herbicidal action against Lolium rigidum ((Z119) 14 DAT, g a.i./ha: r682 16, r683 30): 60%
Herbicidal action against Phalaris minor ((Z119) 14 DAT, g a.i./ha: r709 4, r710 270): 70%
Herbicidal action against Poa annua L. ((Z119) 14 DAT, g a.i./ha: r729 4, r730 270): 20%
Herbicidal action against Alopecurus myosuroides ((Z119) 28 DAT, g a.i./ha: r642 16, r643 4, r644 90, r645 30, r646 270): 40%
Herbicidal action against Centaurea cyanus ((Z119) 28 DAT, g a.i./ha: r654 16, r655 30): 50%
Herbicidal action against Galium aparine ((Z119) 28 DAT, g a.i./ha: r662 1, r663 270): 30%
Herbicidal action against Lolium rigidum ((Z119) 28 DAT, g a.i./ha: r690 16, r691 30): 30%
Herbicidal action in [%] 28 DAT against Alopecurus myosuroides (post-emergence, single active compound (A5 series), g a.i./ha: r591 16, r592 4, r593 450, r594 150, r595 50): 40%
Herbicidal action in [%] 28 DAT against Bromus sterilis (post-emergence, single active compound (A5 series), g a.i./ha: r617 4, r618 450): 60%
Herbicidal action in [%] 14 DAT against Galium aparine (post-emergence, single active compound (A5 series), g a.i./ha: r649 1, r650 150): 50%
Herbicidal action in [%] 14 DAT against Lamium purpureum L. (post-emergence, single active compound (A5 series), g a.i./ha: r659 1, r660 450): 60%
Herbicidal action in [%] 28 DAT against Lamium purpureum L. (post-emergence, single active compound (A5 series), g a.i./ha: r669 1, r670 450): 40%
Herbicidal action in [%] 28 DAT against Phalaris minor (post-emergence, single active compound (A5 series), g a.i./ha: r700 16, r701 450, r702 150): 40%
Herbicidal action in [%] 14 DAT against Poa annua L. (post-emergence, single active compound (A5 series), g a.i./ha: r710 16, r711 450, r712 150, r713 50): 30%
Herbicidal action in [%] 28 DAT against Lolium rigidum (post-emergence, single active compound, g a.i./ha: r679 16, r680 150, r681 50): 30%
Herbicidal action in [%] 14 DAT against Lolium rigidum (resistant bio type) (post-emergence, single active compound, g a.i./ha: r689 16, r690 450, r691 150, r692 50): 30%
Herbicidal action in [%] 28 DAT against Poa annua L. (post-emergence, single active compound, g a.i./ha: r721 16, r722 450): 20%

From patent publication US20220053762A1, “HERBICIDAL COMPOSITIONS” (Bayer Aktiengesellschaft, priority 2018, published 2022)
